Some results are limits rather than exact numbers.

In experiment [1] the test system is anti-CD3 activated human PBMCs. The experiment is described as follows: Effect of compounds on the level of IL-2 secretion by anti-CD3 activated human PBMCs (IL-2 ELISA). Format: cell-based. Particulars: compound concentration at which fold change in IL-2 = 5; hPBMCs, CD3 antibody 2 μg/mL, 48 h, compound from 3 μM. The procedure:
2. Inoculate the resuspended cells into a 96-well cell culture plate at 200 ul/well of cell suspension, and incubate in a 37° C. cell incubator for 1 h;
3. Adjust the compound concentration with DMSO, starting at a final concentration of 3 μM, and perform a 3-fold dilution sequentially for 10 concentration gradients, with an additional DMSO control well set up; and
4. Adjust the CD3 antibody to an appropriate concentration to achieve a final concentration of 2 μg/mL, mix thoroughly, and incubate in a 37° C. cell incubator for 48h.
5. After 48 h, centrifuge at 1500 rpm for 5 min to collect the supernatant of the culture medium for the human IL-2 ELISA test.
The OD values obtained from the ELISA test are converted into the fold change (FC) in IL-2 concentration. […] The EC50 is calculated using GraphPad Prism. When the fold change=5, the corresponding compound concentration is CFC=5 (in nM).
For orientation: ELISA stands for enzyme-linked immunosorbent assay.

The target of the next experiment is CBL-B protein (Homo sapiens, UniProt Q13191). The experiment is described as follows: CBL-B binding experiment (Streptavidin-Tb cryptate / Ligand L1 displacement). Particulars: 8 nM CBL-B protein, 25° C., 60 minutes; Ki=Relative IC50/2. The gist of the method: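 Buffer was 20 mM HEPES pH 7.5, 150 mM NaCl, 0.01% Triton X-100, 0.5 mM TCEP and BSA. Ten-point compound dilutions were incubated with 8 nM CBL-B for 60 min at 25° C., then read by luminescence after another 60 min at room temperature. IC50 came from a four-parameter fit, with Ki = relative IC50/2.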
Sequence of CBL-B protein (Q13191 whole entry): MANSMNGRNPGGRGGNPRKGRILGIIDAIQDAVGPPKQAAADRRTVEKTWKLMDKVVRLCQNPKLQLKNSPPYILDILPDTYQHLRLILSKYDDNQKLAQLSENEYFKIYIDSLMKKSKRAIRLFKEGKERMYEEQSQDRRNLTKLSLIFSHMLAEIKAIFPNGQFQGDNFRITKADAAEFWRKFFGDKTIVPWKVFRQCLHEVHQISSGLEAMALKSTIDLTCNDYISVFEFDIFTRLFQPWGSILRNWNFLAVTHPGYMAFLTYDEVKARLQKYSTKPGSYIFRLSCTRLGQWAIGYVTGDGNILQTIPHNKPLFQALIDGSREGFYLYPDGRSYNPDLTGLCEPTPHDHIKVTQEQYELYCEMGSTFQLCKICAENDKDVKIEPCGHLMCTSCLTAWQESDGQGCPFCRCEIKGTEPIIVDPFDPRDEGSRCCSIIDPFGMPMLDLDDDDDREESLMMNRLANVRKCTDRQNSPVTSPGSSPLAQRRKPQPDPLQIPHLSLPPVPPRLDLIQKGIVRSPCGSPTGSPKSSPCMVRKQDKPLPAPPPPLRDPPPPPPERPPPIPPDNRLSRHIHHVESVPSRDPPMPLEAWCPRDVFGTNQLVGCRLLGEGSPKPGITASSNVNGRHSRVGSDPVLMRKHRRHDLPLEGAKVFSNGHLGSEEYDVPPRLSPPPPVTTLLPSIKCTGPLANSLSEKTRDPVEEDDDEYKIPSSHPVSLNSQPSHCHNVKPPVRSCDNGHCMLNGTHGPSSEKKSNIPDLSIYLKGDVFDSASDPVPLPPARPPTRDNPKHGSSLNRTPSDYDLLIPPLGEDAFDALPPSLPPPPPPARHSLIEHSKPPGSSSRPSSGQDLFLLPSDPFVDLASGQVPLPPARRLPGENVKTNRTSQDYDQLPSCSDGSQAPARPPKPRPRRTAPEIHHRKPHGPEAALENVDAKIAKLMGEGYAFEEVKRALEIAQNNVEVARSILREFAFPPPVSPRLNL

As a reminder, the Ki is a measure of affinity in units of concentration, obtained from inhibition or displacement. A high value points to a looser hold on the target. Take `Cn1cnnc1[C@]1(c2cccc(-n3cc(C(F)(F)F)c4cc(CNC5(C)CCC5)[nH]c4c3=O)c2)C[C@H](C)C1` [Compound T035, 6-(3-((1s,3s)-3-methyl-1-(4-methyl-4H-1,2,4-triazol-3-yl)cyclobutyl)phenyl)-2-(((1-methylcyclobutyl)amino)methyl)-4-(trifluoromethyl)-1,6-dihydro-7H-pyrrolo[2,3-c]pyridin-7-one]: the “IL-2 CFC=5/nM” value in experiment [1] is under 500 nM. Also, the Ki on CBL-B protein is under 50 nM.
On to `C[C@H]1CCCN(Cc2cc3c(C4CC4)cn(-c4cccc([C@]5(Cc6nncn6C)C[C@H](C)C5)c4)c(=O)c3[nH]2)C1` [Compound T037, 4-cyclopropyl-6-(3-((1s,3R)-3-methyl-1-((4-methyl-4H-1,2,4-triazol-3-yl)methyl)cyclobutyl)phenyl)-2-(((S)-3-methylpiperidin-1-yl)methyl)-1,6-dihydro-7H-pyrrolo[2,3-c]pyridin-7-one], for which the “IL-2 CFC=5/nM” value in experiment [1] is under 500 nM. At CBL-B protein, this molecule had a Ki of under 50 nM.
The matching figures for `Cn1cnnc1C1(c2cccc(-n3cc(C(F)(F)F)c4cc(CN5CCC[C@H](O)C5)[nH]c4c3=O)c2)CCC1` [Compound T038, 2-[[(3S)-3-hydroxy-1-piperidyl]methyl]-6-[3-[1-(4-methyl-1,2,4-triazol-3-yl)cyclobutyl]phenyl]-4-(trifluoromethyl)-1H-pyrrolo[2,3-c]pyridin-7-one]: under 500 nM and under 50 nM.
As to `CCC(C)CN(C)Cc1cc2c(C(F)(F)F)cn(-c3cccc(C4(c5nncn5C)CCC4)c3)c(=O)c2[nH]1` (centres unmarked) [Compound T040, 2-[[methyl(2-methylbutyl)amino]methyl]-6-[3-[1-(4-methyl-1,2,4-triazol-3-yl)cyclobutyl]phenyl]-4-(trifluoromethyl)-1H-pyrrolo[2,3-c]pyridin-7-one], in experiment [1], the “IL-2 CFC=5/nM” value is given as under 500 nM. Further, at CBL-B protein, the Ki is under 50 nM.
For the molecule `CCN(Cc1cc2c(C(F)(F)F)cn(-c3cccc(C4(c5nncn5C)CCC4)c3)c(=O)c2[nH]1)CC(C)C` [Compound T041, 2-[[ethyl(isobutyl)amino]methyl]-6-[3-[1-(4-methyl-1,2,4-triazol-3-yl)cyclobutyl]phenyl]-4-(trifluoromethyl)-1H-pyrrolo[2,3-c]pyridin-7-one], in experiment [1], the “IL-2 CFC=5/nM” value is reported as under 500 nM. Moreover, the Ki at CBL-B protein is under 50 nM.
The matching figures for `CCCN(Cc1cc2c(C(F)(F)F)cn(-c3cccc(C4(c5nncn5C)CCC4)c3)c(=O)c2[nH]1)C(C)C` [Compound T042, 2-[[isopropyl(propyl)amino]methyl]-6-[3-[1-(4-methyl-1,2,4-triazol-3-yl)cyclobutyl]phenyl]-4-(trifluoromethyl)-1H-pyrrolo[2,3-c]pyridin-7-one]: under 500 nM and under 50 nM.
On to `C[C@H](NCc1cc2c(C(F)(F)F)cn(-c3cccc(C4(c5nncn5C)CCC4)c3)c(=O)c2[nH]1)C(C)(C)C` [Compound T043, (S)-2-(((3,3-dimethylbutan-2-yl)amino)methyl)-6-(3-(1-(4-methyl-4H-1,2,4-triazol-3-yl)cyclobutyl)phenyl)-4-(trifluoromethyl)-1,6-dihydro-7H-pyrrolo[2,3-c]pyridin-7-one], for which, in experiment [1], the “IL-2 CFC=5/nM” value was under 500 nM. Moreover, the Ki on CBL-B protein is under 50 nM.
For `Cn1cnnc1[C@]1(c2cccc(-n3cc(C(F)(F)F)c4cc(CNCCC5CC5)[nH]c4c3=O)c2)C[C@H](C)C1` [Compound T045, 2-(((2-cyclopropylethyl)amino)methyl)-6-(3-((1s,3s)-3-methyl-1-(4-methyl-4H-1,2,4-triazol-3-yl)cyclobutyl)phenyl)-4-(trifluoromethyl)-1,6-dihydro-7H-pyrrolo[2,3-c]pyridin-7-one] the same measures were under 500 nM and under 50 nM.
For `Cn1cnnc1[C@]1(c2cccc(-n3cc(C(F)(F)F)c4cc(CN5CC[C@H](F)C5)[nH]c4c3=O)c2)C[C@H](C)C1` [Compound T047, 2-(((S)-3-fluoropyrrolidin-1-yl)methyl)-6-(3-((1s,3R)-3-methyl-1-(4-methyl-4H-1,2,4-triazol-3-yl)cyclobutyl)phenyl)-4-(trifluoromethyl)-1,6-dihydro-7H-pyrrolo[2,3-c]pyridin-7-one], in experiment [1], the “IL-2 CFC=5/nM” value is under 500 nM. At CBL-B protein, this molecule gave an inhibitory constant (Ki) of under 50 nM.
For `Cn1cnnc1C1(c2cccc(-n3cc(C(F)(F)F)c4cc(CN5CC6CCC(C6)C5)[nH]c4c3=O)c2)CCC1` [Compound T053, 2-(3-azabicyclo[3.2.1]octan-3-ylmethyl)-6-[3-[1-(4-methyl-1,2,4-triazol-3-yl)cyclobutyl]phenyl]-4-(trifluoromethyl)-1H-pyrrolo[2,3-c]pyridin-7-one] the same measures were under 500 nM and under 50 nM.
Consider `Cn1cnnc1C1(c2cccc(-n3cc(C(F)(F)F)c4cc(CN5CCCC6(CC6)C5)[nH]c4c3=O)c2)CCC1` [Compound T054, 2-(5-azaspiro[2.5]octan-5-ylmethyl)-6-[3-[1-(4-methyl-1,2,4-triazol-3-yl)cyclobutyl]phenyl]-4-(trifluoromethyl)-1H-pyrrolo[2,3-c]pyridin-7-one], for which the “IL-2 CFC=5/nM” value in experiment [1] is reported as under 500 nM. In addition, on CBL-B protein, the Ki is under 50 nM.
For `Cn1cnnc1[C@]1(c2cccc(-n3cc(C(F)(F)F)c4cc(CN5CCC[C@H]6C[C@H]65)[nH]c4c3=O)c2)C[C@H](C)C1` [Compound T055, 2-(((1R,6S)-2-azabicyclo [4.1.0]heptan-2-yl)methyl)-6-(3-((1s,3S)-3-methyl-1-(4-methyl-4H-1,2,4-triazol-3-yl)cyclobutyl)phenyl)-4-(trifluoromethyl)-1,6-dihydro-7H-pyrrolo[2,3-c]pyridin-7-one] the same measures were under 500 nM and under 50 nM.
`Cn1cnnc1[C@]1(c2cccc(-n3cc(C(F)(F)F)c4cc(CN5CCC[C@@H]6C[C@@H]65)[nH]c4c3=O)c2)C[C@H](C)C1` [Compound T056, 2-(((1 S,6R)-2-azabicyclo [4.1.0]heptan-2-yl)methyl)-6-(3-((1s,3R)-3-methyl-1-(4-methyl-4H-1,2,4-triazol-3-yl)cyclobutyl)phenyl)-4-(trifluoromethyl)-1,6-dihydro-7H-pyrrolo[2,3-c]pyridin-7-one]: in experiment [1], the “IL-2 CFC=5/nM” value is listed as under 500 nM. For the same molecule, the Ki at CBL-B protein is under 50 nM.
As for `C[C@H]1CCCN(Cc2cc3c(C(F)(F)F)cn(-c4cccc([C@H](c5nncn5C)C5CCC5)c4)c(=O)c3[nH]2)C1` [Compound T060, 6-(3-((R)-cyclobutyl (4-methyl-4H-1,2,4-triazol-3-yl)methyl)phenyl)-2-(((S)-3-methylpiperidin-1-yl)methyl)-4-(trifluoromethyl)-1,6-dihydro-7H-pyrrolo[2,3-c]pyridin-7-one], the “IL-2 CFC=5/nM” value in experiment [1] is given as under 500 nM. The molecule further gave a Ki at CBL-B protein of under 50 nM.
For the molecule `CO[C@H]1C[C@](c2cccc(-n3cc(C(F)(F)F)c4cc(CNC5(C)CCC5)[nH]c4c3=O)c2)(c2nncn2C)C1` [Compound T066, 6-(3-((1r,3r)-3-methoxy-1-(4-methyl-4H-1,2,4-triazol-3-yl)cyclobutyl)phenyl)-2-(((1-methylcyclobutyl)amino)methyl)-4-(trifluoromethyl)-1,6-dihydro-7H-pyrrolo[2,3-c]pyridin-7-one], the “IL-2 CFC=5/nM” value in experiment [1] is under 500 nM. This molecule came in with a Ki at CBL-B protein of under 50 nM.
With `CO[C@H]1C[C@@](c2cccc(-n3cc(C(F)(F)F)c4cc(CNC5(C)CCC5)[nH]c4c3=O)c2)(c2nncn2C)C1` [Compound T067, 6-(3-((1s,3s)-3-methoxy-1-(4-methyl-4H-1,2,4-triazol-3-yl)cyclobutyl)phenyl)-2-(((1-methylcyclobutyl)amino)methyl)-4-(trifluoromethyl)-1,6-dihydro-7H-pyrrolo[2,3-c]pyridin-7-one], in experiment [1], the “IL-2 CFC=5/nM” value is recorded as under 500 nM. The same molecule had a Ki on CBL-B protein of under 50 nM.
For `CCN(Cc1cc2c(C(F)(F)F)cn(-c3cccc([C@]4(c5nncn5C)C[C@@H](C)C4)c3)c(=O)c2[nH]1)CC(C)C` [Compound T069, 2-((ethyl(isobutyl)amino)methyl)-6-(3-((1s,3s)-3-methyl-1-(4-methyl-4H-1,2,4-triazol-3-yl)cyclobutyl)phenyl)-4-(trifluoromethyl)-1,6-dihydro-7H-pyrrolo[2,3-c]pyridin-7-one] the same measures were under 500 nM and under 50 nM.
Turning to `C[C@H]1CCCN(Cc2cc3c(C(F)(F)F)cn(-c4cccc(C5(c6nncn6C)CC(F)C5)c4)c(=O)c3[nH]2)C1` (stereo partly drawn) [Compound T070, 6-[3-[3-fluoro-1-(4-methyl-1,2,4-triazol-3-yl)cyclobutyl]phenyl]-2-[[(3S)-3-methyl-1-piperidyl]methyl]-4-(trifluoromethyl)-1H-pyrrolo[2,3-c]pyridin-7-one], the “IL-2 CFC=5/nM” value in experiment [1] is recorded as under 500 nM. On CBL-B protein, this molecule gave a Ki of under 50 nM.
Take `C[C@H]1CCCN(Cc2cc3c(C(F)(F)F)cn(-c4cccc([C@]5(c6nncn6C)C[C@@H](F)C5)c4)c(=O)c3[nH]2)C1` [Compound T071, 6-[3-[3-fluoro-1-(4-methyl-1,2,4-triazol-3-yl)cyclobutyl]phenyl]-2-[[(3S)-3-methyl-1-piperidyl]methyl]-4-(trifluoromethyl)-1-H-pyrrolo[2,3-c]pyridin-7-one]: the “IL-2 CFC=5/nM” value in experiment [1] is under 500 nM. This molecule also had a Ki at CBL-B protein of under 50 nM.

The values above are taken from patent US20260217706A1, “HETEROCYCLIC COMPOUNDS, PREPARATION METHOD THEREFOR AND USE THEREOF” (GUANGZHOU YUFAN NANTU BIOTECHNOLOGIES CO., LTD, priority 2023, published 2026).
